{
  "source": "patent EP0779076A1",
  "about": "“PEPTIDE, A METHOD OF OBTAINING IT AND A PHARMACEUTICAL COMPOUND BASED ON IT” (priority 1994, dated 1996)",
  "key": {"[1]": {"system": "rats", "assay": "Tail flick analgesic test", "type": "in vivo", "conditions": "intranasally 0.005 mg/kg", "excerpt": "Opium-like activity was studied in a classical way by […] tests on isolated organs: - Test GPI (Guang T.A, Kosterlitz H.W, Agonist and antagonist action of morphine like drugs on the guinea pigs isolated ileum, Br.J. Pharmacol., 1966, V.27N3.P.514-527 - Test MVD; Hughs J., Kosterlitz H.W., Leslie F.M, Effect of morphine on adrenergic transmission in mouse is different. Assessment of agonist and antagonist potencies of narcotics, Br.J. Pharmacol., 1975, V. 53, N3-P. 371-381) As well as tests to determine opium-like activities by the […] hot plate test (Aukier S.I., New hot plate tests to qualify analgesic and narcotic antagonist activities, Eur.J. Pharmacol., 174 - V.27 Ni p.1-4) and \"Tail flick\" on rats (D'Amour F.E., Smith D.L, A method for determining loss, Exp.Ther.,1974, V.72 Ni-p.74-79).\nThe analgesic activities of those peptides were tested by the \"tail flick\" method on rats which received intranasally a dose of 0.005 mg/kg. A real analgesic effect of 242 units was characteristic to the peptide H-Arg-Tyr-D-Ala-Phe-Gly-OH. Table 2 outlines the findings with regard to the opium-like activity for this peptide group."}},
  "note": "Non-standard residues stand in square brackets, D forms with d. Residues, ends and D or L forms follow the SMILES beside them.",
  "data": [
    {"smiles": "C[C@@H](NC(=O)[C@H](Cc1ccc(O)cc1)NC(=O)[C@@H](N)CCCNC(=N)N)C(=O)N[C@@H](Cc1ccccc1)C(=O)NCC(=O)O", "note": "[H-Arg-Tyr-D-Ala-Phe-Gly-OH] (H-RY[dA]FG-OH)", "values": [
      {"measurement": "solubility in alcohol", "setting": "alcohol", "value": "not well dissolvable in alcohol"},
      {"measurement": "solubility in chloroform", "setting": "chloroform", "value": "nonsoluble in chloroform"},
      {"measurement": "solubility in water", "setting": "water", "value": "dissolvable in water"},
      {"measurement": "analgesic effect", "setting": "[1]", "value": 242, "unit": "units"}
    ]}
  ]
}
